Laboratory results: ChEMBL document CHEMBL3616405 (J Med Chem, 2015)

Columns and labels:
[1] = target: T1, Glucagon-like peptide 1 receptor (Homo sapiens, UniProt P43220); experiment: Displacement of [125I]-GLP1 from human GLP1 receptor expressed in BHK cells after 2 hrs in presence of 2% human serum albumin; assay type: cell-based
[2] = target: T1, Glucagon-like peptide 1 receptor; experiment: Agonist activity at human GLP1 receptor expressed in BHK cells after 3 hrs by CRE firefly luciferase reporter gene assay in absence of human serum albumin; assay type: functional, cell-based
[3] = target: T1, Glucagon-like peptide 1 receptor; experiment: Displacement of [125I]-GLP1 from human GLP1 receptor expressed in BHK cells after 2 hrs in absence of human serum albumin; assay type: cell-based

T1 sequence (P43220 whole entry): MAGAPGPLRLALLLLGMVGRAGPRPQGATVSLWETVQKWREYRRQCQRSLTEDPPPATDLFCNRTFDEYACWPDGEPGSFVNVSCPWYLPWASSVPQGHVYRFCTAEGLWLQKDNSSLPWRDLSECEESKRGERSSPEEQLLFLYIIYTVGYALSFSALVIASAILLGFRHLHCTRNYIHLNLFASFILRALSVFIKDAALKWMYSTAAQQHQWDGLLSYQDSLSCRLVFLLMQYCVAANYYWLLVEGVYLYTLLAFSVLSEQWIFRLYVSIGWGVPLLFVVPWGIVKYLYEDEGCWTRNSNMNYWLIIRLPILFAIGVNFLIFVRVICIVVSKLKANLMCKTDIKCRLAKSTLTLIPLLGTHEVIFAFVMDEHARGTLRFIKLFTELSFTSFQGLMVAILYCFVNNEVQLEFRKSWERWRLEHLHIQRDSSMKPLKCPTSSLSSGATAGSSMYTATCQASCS

Structure (SMILES) | IC50 ([1]; bhk) | EC50 ([2]; bhk) | IC50 ([3]; bhk) | IC50 [1] | EC50 [2] | IC50 [3]
CCCCCCCCCCCCCCCC(=O)N[C@@H](CCC(=O)NCCOCCOCC(=O)NCCOCCOCC(=O)NCCOCCOCC(=O)NCCCC[C@H](NC(=O)[C@H](C)NC(=O)[C@H](C)NC(=O)[C@H](CCC(N)=O)NC(=O)CNC(=O)[C@H](CCC(=O)O)NC(=O)[C@H](CC(C)C)NC(=O)[C@H](Cc1ccc(O)cc1)NC(=O)[C@H](CO)NC(=O)[C@H](CO)NC(=O)[C@@H](NC(=O)[C@H](CC(=O)O)NC(=O)[C@H](CO)NC(=O)[C@@H](NC(=O)[C@H](Cc1ccccc1)NC(=O)[C@@H](NC(=O)CNC(=O)[C@H](CCC(=O)O)NC(=O)C(C)(C)NC(=O)[C@@H](N)Cc1c[nH]cn1)[C@@H](C)O)[C@@H](C)O)C(C)C)C(=O)N[C@@H](CCC(=O)O)C(=O)N[C@@H](Cc1ccccc1)C(=O)N[C@H](C(=O)N[C@@H](C)C(=O)N[C@@H](Cc1c[nH]c2ccccc12)C(=O)N[C@@H](CC(C)C)C(=O)N[C@H](C(=O)N[C@@H](CCCNC(=N)N)C(=O)NCC(=O)N[C@@H](CCCNC(=N)N)C(=O)NCC(=O)O)C(C)C)[C@@H](C)CC)C(=O)O | 0.22 nM | 0.0043 nM | 0.03 nM |  |  | 
CC[C@H](C)[C@H](NC(=O)[C@H](Cc1ccccc1)NC(=O)[C@H](CCC(=O)O)NC(=O)[C@H](CCCNC(=N)N)NC(=O)[C@H](C)NC(=O)[C@H](C)NC(=O)[C@H](CCC(N)=O)NC(=O)CNC(=O)[C@H](CCC(=O)O)NC(=O)[C@H](CC(C)C)NC(=O)[C@H](Cc1ccc(O)cc1)NC(=O)[C@H](CO)NC(=O)[C@H](CO)NC(=O)[C@@H](NC(=O)[C@H](CC(=O)O)NC(=O)[C@H](CO)NC(=O)[C@@H](NC(=O)[C@H](Cc1ccccc1)NC(=O)[C@@H](NC(=O)CNC(=O)[C@H](CCC(=O)O)NC(=O)C(C)(C)NC(=O)[C@@H](N)Cc1c[nH]cn1)[C@@H](C)O)[C@@H](C)O)C(C)C)C(=O)N[C@@H](C)C(=O)N[C@@H](Cc1c[nH]c2ccccc12)C(=O)N[C@@H](CC(C)C)C(=O)N[C@H](C(=O)N[C@@H](CCCNC(=N)N)C(=O)NCC(=O)N[C@@H](CCCNC(=N)N)C(=O)NCC(=O)N[C@@H](CCCCNC(=O)CCCCCCCCCCCCCCCCC(=O)O)C(=O)O)C(C)C |  |  |  | 7.55 nM | 0.0873 nM | 0.31 nM
CC[C@H](C)[C@H](NC(=O)[C@H](Cc1ccccc1)NC(=O)[C@H](CCC(=O)O)NC(=O)[C@H](CCCCNC(=O)COCCOCCNC(=O)COCCOCCNC(=O)CC[C@H](NC(=O)CCCCCCCCCCCCCCCCCCCCC(=O)O)C(=O)O)NC(=O)[C@H](C)NC(=O)[C@H](C)NC(=O)[C@H](CCC(N)=O)NC(=O)CNC(=O)[C@H](CCC(=O)O)NC(=O)[C@H](CC(C)C)NC(=O)[C@H](Cc1ccc(O)cc1)NC(=O)[C@H](CO)NC(=O)[C@H](CO)NC(=O)[C@@H](NC(=O)[C@H](CC(=O)O)NC(=O)[C@H](CO)NC(=O)[C@@H](NC(=O)[C@H](Cc1ccccc1)NC(=O)[C@@H](NC(=O)CNC(=O)[C@H](CCC(=O)O)NC(=O)C(C)(C)NC(=O)[C@@H](N)Cc1c[nH]cn1)[C@@H](C)O)[C@@H](C)O)C(C)C)C(=O)N[C@@H](C)C(=O)N[C@@H](Cc1c[nH]c2ccccc12)C(=O)N[C@@H](CC(C)C)C(=O)N[C@H](C(=O)N[C@@H](CCCNC(=N)N)C(=O)NCC(=O)N[C@@H](CCCNC(=N)N)C(=O)NCC(=O)O)C(C)C |  |  |  | 24.8 nM | 0.0244 nM | 0.21 nM
